This passage reports IC50 results from BindingDB's records for patent US20260062412 (Chugai Seiyaku Kabushiki Kaisha, 2026).

The target in this experiment is T1, Membrane-associated tyrosine- and threonine-specific cdc2-inhibitory kinase (Homo sapiens, UniProt Q99640).
T1 sequence (Q99640 whole entry): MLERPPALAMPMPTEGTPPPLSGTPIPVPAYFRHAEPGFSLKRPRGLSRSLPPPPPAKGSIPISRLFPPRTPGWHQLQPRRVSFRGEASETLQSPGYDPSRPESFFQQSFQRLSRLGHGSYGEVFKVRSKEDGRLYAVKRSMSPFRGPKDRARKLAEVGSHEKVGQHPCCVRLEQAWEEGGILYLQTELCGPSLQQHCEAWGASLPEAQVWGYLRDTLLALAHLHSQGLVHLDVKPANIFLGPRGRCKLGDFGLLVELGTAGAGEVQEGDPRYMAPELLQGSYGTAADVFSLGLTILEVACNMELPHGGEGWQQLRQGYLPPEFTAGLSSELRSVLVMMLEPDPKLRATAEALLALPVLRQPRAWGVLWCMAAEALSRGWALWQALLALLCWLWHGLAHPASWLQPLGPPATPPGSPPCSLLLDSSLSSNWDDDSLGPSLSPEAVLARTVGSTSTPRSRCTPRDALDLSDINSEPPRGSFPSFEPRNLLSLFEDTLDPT
In words: Test for Binding to ATP Binding Site of MYT1. On the procedure:
Table 3-1 to 3-5: The binding capacity of each compound to the ATP binding site of MYT1 Kinase protein was evaluated. 5× Kinase Buffer A (manufactured by Thermo Fisher Scientific Inc., PV3189) was diluted to 5 times with Milli-Q water, thereby preparing 1× Kinase Buffer. Using 1× Kinase Buffer, MYT1 protein (manufactured by Carna Biosciences, Inc.) was diluted to a concentration of 0.005 μM and Eu-Anti-GST Antibody was diluted to a concentration of 1 μM. […] To a 96 well-plate, 2.5 μL of a compound diluted with DMSO was added. […] The mixture was well mixed and then allowed to stand at room temperature for 30 minutes. Thereafter, fluorescence wavelengths of 665 nm and 615 nm generated by irradiation with excitation light of 340 nm were detected using Envision (manufactured by PerkinElmer). The proportion of Tracer bound to MYT1 protein was calculated for every condition by dividing the intensity at the fluorescence wavelength of 665 nm by the intensity at the fluorescence wavelength of 615 nm.
A word on the IC50: it is the concentration that gives 50% inhibition. In turn, `Nc1c(-c2cc(F)c(F)c3[nH]ncc23)c2cc(O[C@H]3C[C@@H](F)C3)c3ncccc3c2[nH]c1=O` [US20260062412, Compound C213] returned an IC50 of 0.83 nM.

On to `N#C[C@H]1C[C@@H](Oc2cc3c(-c4cc(F)c(F)c5[nH]ncc45)c(N)c(=O)[nH]c3c3cccnc23)C1` [US20260062412, Compound C212], for which the IC50 was 1.2 nM. `CC[C@@H](C)Oc1cc2c(c3cccnc13)NC(=O)C(N)C2c1ccc(F)c2[nH]ncc12` (stereo partly drawn) [US20260062412, Compound C36] had an IC50 of 4.2 nM.
